For 13 compounds, inhibition in vivo and mortality results are on record in ChEMBL document CHEMBL1146105, “Synthesis and analgesic activity of secondary amine analogues of pyridylmethylamine and positional isomeric analogues of ABT-594” (Bioorg Med Chem Lett, 2006).

Series [1] concerns Mus musculus. Description: Analgesic activity in mice at 10 mg/kg, sc by acetic acid writhing test. The series is classed as functional. The following applies: route subcutaneous. (An intraperitoneal irritant provokes the stretching counted in writhing tests.)
A short description of series [2]: Toxicity in […] at 20 mg/kg, sc assessed as rate of death. The format is organism-based. Further details: dose 20 mg/kg, route subcutaneous. The following applies: in vivo, read-out: Activity.
The subject of series [3] is Mus musculus. Description: Analgesic activity in mice at 20 mg/kg, sc by acetic acid writhing test. The series is classed as functional. The following applies: route subcutaneous.
Series [4] in a line: Toxicity in […] at 10 mg/kg, sc assessed as rate of death. The following applies: in vivo, read-out: Activity. Further details: dose 10 mg/kg, route subcutaneous. The format is organism-based.
The subject of series [5] is Mus musculus. The series can be described thus: Analgesic activity in mice at 5 mg/kg, sc by acetic acid writhing test. The following applies: read-out: Inhibition.
Series [6] in a line: Toxicity in rat at 5 mg/kg, sc assessed as rate of death. The following applies: in vivo.

Molecules are shown by their SMILES.

With `c1cncc(CNCCc2ccco2)c1`, the inhibition in vivo at 10 mg/kg in series [1] came to 0%. Also, the mortality in series [2] and in series [4] was 0% each time. The compound also showed an inhibition in vivo at 20 mg/kg in series [3] of 50%.

As for `c1cncc(CNCCC2CCCO2)c1` (centres undefined), the inhibition in vivo at 10 mg/kg in series [1] was determined as 56%. Moreover, the mortality in series [2] and in series [4] was 0% throughout. In series [3], this compound gave an inhibition in vivo at 20 mg/kg of 23%.

Take `Clc1ccc(CNCCC2CCCO2)cn1` (centres undefined): in series [2], the mortality came to 0%. In series [3], the inhibition in vivo at 20 mg/kg came out at 35%.

On to `c1ccc(NCCc2ccco2)nc1`, for which, in series [2], the mortality came out at 0%. This compound also returned an inhibition in vivo at 20 mg/kg in series [3] of 0%.

Consider `Clc1ccc(CNCCc2ccco2)cn1`, for which the inhibition in vivo at 10 mg/kg in series [1] was found to be 41%. In addition, the mortality in series [2] and in series [4] was 0% each time. The compound further returned an inhibition in vivo at 20 mg/kg in series [3] of 46%.

For the compound `Clc1ccc(CNC2CCCC2)cn1`, the inhibition in vivo at 10 mg/kg in series [1] was 37%. The mortality in series [2] and in series [4] was 0% each time. This compound also had an inhibition in vivo at 20 mg/kg in series [3] of 66%.

As to `c1cncc(NCC2CO2)c1` (centres undefined), the mortality in series [2] amounted to 0%. Besides, in series [3], the inhibition in vivo at 20 mg/kg stood at 0%.

`Clc1ccc(NCC2CCCO2)cn1` (centres undefined): in series [2], the mortality was determined as 0%. In series [3], this compound displayed an inhibition in vivo at 20 mg/kg of 0%.

On to `Clc1ccc(NCC2CO2)cn1` (centres undefined), for which, in series [2], the mortality stood at 0%. The compound also yielded an inhibition in vivo at 20 mg/kg in series [3] of 20.5%.

With `c1ccc(NCCC2CCCO2)nc1` (centres undefined), in series [2], the mortality was 0%. The same compound yielded an inhibition in vivo at 20 mg/kg in series [3] of 0%.

On to `c1ccc(CNC2CCCC2)nc1`, for which the mortality in series [2] was determined as 0%. Moreover, in series [3], the inhibition in vivo at 20 mg/kg turned out to be 0%.

`c1cncc(CNC2CCCC2)c1` had an inhibition in vivo at 10 mg/kg in series [1] of 0%. Further, the mortality in series [2] and in series [4] was 0% each time. Moreover, the inhibition in vivo at 20 mg/kg in series [3] came to 61%.

Compound `CN1CCC[C@H]1c1cccnc1` [NICOTINE] showed an inhibition in vivo at 10 mg/kg in series [1] of 100%. Also, the values for the mortality in series [2], in series [6] and in series [4] were 100%, 25% and 50%, respectively. In series [5], the inhibition in vivo at 5 mg/kg turned out to be 88%.
